The NIST ThermoML archive (doi:10.1021/acs.jced.6b00718)
± gives the expanded uncertainty stated by the source.

Assay: xn = mol fraction of the nth substance listed
Conditions: 101 kPa, Liquid; for electrical conductivity: Alternating current cell with electrodes, x2 = 0.2889; for viscosity: Falling or rolling sphere viscometry; for mass density: Vibrating tube method

N#CCCCCC#N [hexanedinitrile] + CCCC[N+]1(C)CCCC1.O=S(=O)([N-]S(=O)(=O)C(F)(F)F)C(F)(F)F
electrical conductivity (291.8 K): 0.495 ± 0.012 S/m | viscosity (293.15 K, x2 = 0): 7.17 ± 0.44 mPa·s | viscosity (293.15 K, x2 = 0.1002): 9.85 ± 0.6 mPa·s | viscosity (293.15 K, x2 = 0.1996): 13.22 ± 0.81 mPa·s | viscosity (293.15 K, x2 = 0.3004): 17.56 ± 1.1 mPa·s | viscosity (293.15 K, x2 = 0.3995): 25.01 ± 1.5 mPa·s | viscosity (293.15 K, x2 = 0.5001): 31 ± 1.9 mPa·s | viscosity (293.15 K, x2 = 0.6): 37.48 ± 2.3 mPa·s | viscosity (293.15 K, x2 = 0.7011): 48.32 ± 2.9 mPa·s | viscosity (293.15 K, x2 = 0.7996): 59.96 ± 3.6 mPa·s | viscosity (293.15 K, x2 = 0.8997): 77.23 ± 4.8 mPa·s | mass density (293.15 K, x2 = 0): 962.3 ± 1.9 kg/m3 | mass density (293.15 K, x2 = 0.1002): 1063.5 ± 3 kg/m3 | mass density (293.15 K, x2 = 0.1996): 1138 ± 2.8 kg/m3 | mass density (293.15 K, x2 = 0.3004): 1196.8 ± 2.7 kg/m3 | mass density (293.15 K, x2 = 0.3995): 1243 ± 2.7 kg/m3 | mass density (293.15 K, x2 = 0.5001): 1281.6 ± 2.7 kg/m3 | mass density (293.15 K, x2 = 0.6): 1313.1 ± 2.8 kg/m3 | mass density (293.15 K, x2 = 0.7011): 1340 ± 2.8 kg/m3 | mass density (293.15 K, x2 = 0.7996): 1362.5 ± 2.8 kg/m3 | mass density (293.15 K, x2 = 0.8997): 1382.3 ± 2.8 kg/m3 | electrical conductivity (295.2 K): 0.551 ± 0.014 S/m | viscosity (298.15 K, x2 = 0): 6.31 ± 0.38 mPa·s | viscosity (298.15 K, x2 = 0.1002): 8.45 ± 0.52 mPa·s | viscosity (298.15 K, x2 = 0.1996): 11.27 ± 0.69 mPa·s | viscosity (298.15 K, x2 = 0.3004): 14.79 ± 0.91 mPa·s | viscosity (298.15 K, x2 = 0.3995): 21.46 ± 1.3 mPa·s | viscosity (298.15 K, x2 = 0.5001): 25.62 ± 1.6 mPa·s | viscosity (298.15 K, x2 = 0.6): 30.92 ± 1.9 mPa·s | viscosity (298.15 K, x2 = 0.7011): 39.22 ± 2.4 mPa·s | viscosity (298.15 K, x2 = 0.7996): 48.21 ± 2.9 mPa·s | viscosity (298.15 K, x2 = 0.8997): 61.49 ± 3.8 mPa·s | mass density (298.15 K, x2 = 0): 958.6 ± 1.9 kg/m3 | mass density (298.15 K, x2 = 0.1002): 1059.5 ± 3 kg/m3 | mass density (298.15 K, x2 = 0.1996): 1133.9 ± 2.8 kg/m3 | mass density (298.15 K, x2 = 0.3004): 1192.5 ± 2.7 kg/m3 | mass density (298.15 K, x2 = 0.3995): 1238.7 ± 2.7 kg/m3 | mass density (298.15 K, x2 = 0.5001): 1277.3 ± 2.7 kg/m3 | mass density (298.15 K, x2 = 0.6): 1308.6 ± 2.7 kg/m3 | mass density (298.15 K, x2 = 0.7011): 1335.6 ± 2.8 kg/m3 | mass density (298.15 K, x2 = 0.7996): 1358.2 ± 2.8 kg/m3 | mass density (298.15 K, x2 = 0.8997): 1378 ± 2.8 kg/m3 | electrical conductivity (299.3 K): 0.62 ± 0.014 S/m | viscosity (303.15 K, x2 = 0): 5.53 ± 0.34 mPa·s | viscosity (303.15 K, x2 = 0.1002): 7.35 ± 0.45 mPa·s | viscosity (303.15 K, x2 = 0.1996): 9.71 ± 0.59 mPa·s | viscosity (303.15 K, x2 = 0.3004): 12.61 ± 0.77 mPa·s | viscosity (303.15 K, x2 = 0.3995): 18.54 ± 1.1 mPa·s | viscosity (303.15 K, x2 = 0.5001): 21.53 ± 1.3 mPa·s | viscosity (303.15 K, x2 = 0.6): 25.59 ± 1.6 mPa·s | viscosity (303.15 K, x2 = 0.7011): 32.33 ± 2 mPa·s | viscosity (303.15 K, x2 = 0.7996): 39.41 ± 2.4 mPa·s | viscosity (303.15 K, x2 = 0.8997): 49.74 ± 3 mPa·s | mass density (303.15 K, x2 = 0): 954.8 ± 1.9 kg/m3 | mass density (303.15 K, x2 = 0.1002): 1055.6 ± 3 kg/m3 | mass density (303.15 K, x2 = 0.1996): 1129.8 ± 2.8 kg/m3 | mass density (303.15 K, x2 = 0.3004): 1188.3 ± 2.7 kg/m3 | mass density (303.15 K, x2 = 0.3995): 1234.4 ± 2.7 kg/m3 | mass density (303.15 K, x2 = 0.5001): 1272.9 ± 2.7 kg/m3 | mass density (303.15 K, x2 = 0.6): 1304.2 ± 2.7 kg/m3 | mass density (303.15 K, x2 = 0.7011): 1331.2 ± 2.8 kg/m3 | mass density (303.15 K, x2 = 0.7996): 1353.8 ± 2.8 kg/m3 | mass density (303.15 K, x2 = 0.8997): 1373.5 ± 2.8 kg/m3 | electrical conductivity (303.9 K): 0.702 ± 0.016 S/m | viscosity (313.15 K, x2 = 0): 4.54 ± 0.28 mPa·s | viscosity (313.15 K, x2 = 0.1002): 5.72 ± 0.35 mPa·s | viscosity (313.15 K, x2 = 0.1996): 7.43 ± 0.45 mPa·s | viscosity (313.15 K, x2 = 0.3004): 9.44 ± 0.58 mPa·s | viscosity (313.15 K, x2 = 0.3995): 14.05 ± 0.86 mPa·s | viscosity (313.15 K, x2 = 0.5001): 15.63 ± 0.95 mPa·s | viscosity (313.15 K, x2 = 0.6): 18.34 ± 1.1 mPa·s | viscosity (313.15 K, x2 = 0.7011): 22.83 ± 1.4 mPa·s | viscosity (313.15 K, x2 = 0.7996): 27.42 ± 1.7 mPa·s | viscosity (313.15 K, x2 = 0.8997): 34.01 ± 2.1 mPa·s | mass density (313.15 K, x2 = 0): 947.2 ± 1.9 kg/m3 | mass density (313.15 K, x2 = 0.1002): 1047.6 ± 3 kg/m3 | mass density (313.15 K, x2 = 0.1996): 1121.5 ± 2.8 kg/m3 | mass density (313.15 K, x2 = 0.3004): 1179.9 ± 2.7 kg/m3 | mass density (313.15 K, x2 = 0.3995): 1225.8 ± 2.7 kg/m3 | mass density (313.15 K, x2 = 0.5001): 1264.2 ± 2.7 kg/m3 | mass density (313.15 K, x2 = 0.6): 1295.3 ± 2.7 kg/m3 | mass density (313.15 K, x2 = 0.7011): 1322.3 ± 2.7 kg/m3 | mass density (313.15 K, x2 = 0.7996): 1344.8 ± 2.8 kg/m3 | mass density (313.15 K, x2 = 0.8997): 1364.5 ± 2.8 kg/m3 | electrical conductivity (313.4 K): 0.9 ± 0.02 S/m | electrical conductivity (322.2 K): 1.1 ± 0.024 S/m | viscosity (323.15 K, x2 = 0): 3.73 ± 0.23 mPa·s | viscosity (323.15 K, x2 = 0.1002): 4.53 ± 0.28 mPa·s | viscosity (323.15 K, x2 = 0.1996): 5.86 ± 0.36 mPa·s | viscosity (323.15 K, x2 = 0.3004): 7.32 ± 0.45 mPa·s | viscosity (323.15 K, x2 = 0.3995): 10.01 ± 0.61 mPa·s | viscosity (323.15 K, x2 = 0.5001): 11.82 ± 0.72 mPa·s | viscosity (323.15 K, x2 = 0.6): 13.7 ± 0.83 mPa·s | viscosity (323.15 K, x2 = 0.7011): 16.83 ± 1 mPa·s | viscosity (323.15 K, x2 = 0.7996): 19.97 ± 1.2 mPa·s | viscosity (323.15 K, x2 = 0.8997): 24.42 ± 1.5 mPa·s | mass density (323.15 K, x2 = 0): 939.8 ± 1.9 kg/m3 | mass density (323.15 K, x2 = 0.1002): 1039.8 ± 3 kg/m3 | mass density (323.15 K, x2 = 0.1996): 1113.4 ± 2.7 kg/m3 | mass density (323.15 K, x2 = 0.3004): 1171.6 ± 2.7 kg/m3 | mass density (323.15 K, x2 = 0.3995): 1217.3 ± 2.7 kg/m3 | mass density (323.15 K, x2 = 0.5001): 1255.6 ± 2.7 kg/m3 | mass density (323.15 K, x2 = 0.6): 1286.7 ± 2.7 kg/m3 | mass density (323.15 K, x2 = 0.7011): 1313.6 ± 2.7 kg/m3 | mass density (323.15 K, x2 = 0.7996): 1336 ± 2.8 kg/m3 | mass density (323.15 K, x2 = 0.8997): 1355.6 ± 2.8 kg/m3 | electrical conductivity (332.9 K): 1.37 ± 0.03 S/m | viscosity (333.15 K, x2 = 0): 3.02 ± 0.18 mPa·s | viscosity (333.15 K, x2 = 0.1002): 3.74 ± 0.23 mPa·s | viscosity (333.15 K, x2 = 0.1996): 4.8 ± 0.29 mPa·s | viscosity (333.15 K, x2 = 0.3004): 5.87 ± 0.36 mPa·s | viscosity (333.15 K, x2 = 0.3995): 7.86 ± 0.48 mPa·s | viscosity (333.15 K, x2 = 0.5001): 9.21 ± 0.56 mPa·s | viscosity (333.15 K, x2 = 0.6): 10.59 ± 0.64 mPa·s | viscosity (333.15 K, x2 = 0.7011): 12.85 ± 0.78 mPa·s | viscosity (333.15 K, x2 = 0.7996): 15.09 ± 0.92 mPa·s | viscosity (333.15 K, x2 = 0.8997): 18.22 ± 1.1 mPa·s | mass density (333.15 K, x2 = 0): 932.3 ± 1.9 kg/m3 | mass density (333.15 K, x2 = 0.1002): 1031.9 ± 2.9 kg/m3 | mass density (333.15 K, x2 = 0.1996): 1105.4 ± 2.7 kg/m3 | mass density (333.15 K, x2 = 0.3004): 1163.3 ± 2.6 kg/m3 | mass density (333.15 K, x2 = 0.3995): 1206.3 ± 2.6 kg/m3 | mass density (333.15 K, x2 = 0.5001): 1246.8 ± 2.7 kg/m3 | mass density (333.15 K, x2 = 0.6): 1277.9 ± 2.7 kg/m3 | mass density (333.15 K, x2 = 0.7011): 1304.7 ± 2.7 kg/m3 | mass density (333.15 K, x2 = 0.7996): 1326.7 ± 2.7 kg/m3 | mass density (333.15 K, x2 = 0.8997): 1346.3 ± 2.8 kg/m3
